This assay deals with T1, gephE (Rattus norvegicus, UniProt Q03555).
T1 construct: gephE (residues 318-736) was generated; made in house
T1 sequence (Q03555 350-768): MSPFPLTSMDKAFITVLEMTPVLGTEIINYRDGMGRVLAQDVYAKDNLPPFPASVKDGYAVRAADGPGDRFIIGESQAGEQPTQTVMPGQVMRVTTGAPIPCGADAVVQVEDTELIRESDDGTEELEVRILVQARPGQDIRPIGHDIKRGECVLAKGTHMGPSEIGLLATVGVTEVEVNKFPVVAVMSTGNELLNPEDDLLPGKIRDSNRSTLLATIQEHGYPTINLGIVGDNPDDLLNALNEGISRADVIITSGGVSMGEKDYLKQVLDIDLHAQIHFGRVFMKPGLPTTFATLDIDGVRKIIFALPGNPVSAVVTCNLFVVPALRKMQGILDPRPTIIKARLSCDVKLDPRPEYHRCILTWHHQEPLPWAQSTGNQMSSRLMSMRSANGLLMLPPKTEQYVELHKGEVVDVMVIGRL
Kind of assay: TRIC displacement 12-point dose response against gephE-NN1D-Alexa647 complex. The format is binding.

Where a SMILES comes first, the peptide text is derived from it.

With `CC[C@H](C)[C@H](NC(=O)[C@H](CO)NC(=O)[C@H](Cc1ccccc1)NC(=O)[C@H](CC(=O)O)NC(=O)[C@H](CC(N)=O)NC(=O)[C@H](CO)NC(=O)[C@H](CCCNC(=N)N)NC(=O)[C@H](CC(C)C)NC(=O)[C@@H](N)CC(=O)O)C(=O)N[C@H](C(=O)NCC(=O)N[C@@H](CO)C(=O)N[C@@H](CC(C)C)C(=O)N1CCC[C@H]1C(=O)N[C@@H](CCCNC(=N)N)C(N)=O)[C@@H](C)CC` [GlyRβ_Full_Positional_Scan_183] (H-DLRSNDFSIIGSLPR-NH2), the Ki stood at 9.01 µM.

Values taken from paper PMC7753147, “High-throughput determination of protein affinities using unmodified peptide libraries in nanomolar scale” (iScience, 2020).
